Reference: patent US20230181614A1, “ADMINISTRATION OF CITICOLINE TO IMPROVE COGNITIVE PERFORMANCE, ATTENTIONAL PERFORMANCE, AND MOTOR FUNCTION” (KYOWA HAKKO BIO CO., LTD., priority 2014, published 2023)
Where “and” joins values, the source holds several entries; their conditions need not be identical. Equal entries are not always repeated.

Columns and labels:
[1] = system: Healthy subjects, ages 13-18; test: Positive and Negative Affect Scale for Children (PANAS-C); format: in vivo, human
Source text: Study participants were screened by telephone prior to study enrollment. Healthy subjects, ages 13-18, with no significant medical conditions and no history of co-morbid psychiatric disorder, current Axis I or II diagnosis, or previous participation in a pharmacotherapeutic trial, were selected. Use of any psychotropic medication or any previous head injury resulting in loss of consciousness for 5 or more minutes were used as exclusion criteria. While no participant met criteria for a neuropsychiatric disorder at enrollment, clinical assessments were still completed throughout the study to evaluate changes in mood state. In addition, self-reports of sleep habits, lifestyle, and exercise routines were also administered at baseline as well as at each study visit to assess changes in health habits during study participation. Following the completion of Visit 1 assessment, participants were given their 28-day supply of citicoline (250 mg or 500 mg) or placebo, which was randomly assigned. They were instructed to take one capsule a day every day for the next 28 days. Visit 2 occurred fourteen days after Visit 1. At Visit 2, the remaining study pills were counted and participant dosage calendars were checked to ensure compliance with the protocol. Additional neuropsychological measures and clinical assessments were administered during this visit. Participants returned for Visit 3 fourteen days later, on the 28th day of their study participation. The pill bottle and the dosage calendar were collected from each participant. Urine and blood were again obtained. Participants also participated in similar clinical and neuropsychological testing and clinical measures that were given during visit 1. The […] is a self-report questionnaire on which participants rate to what extent they are currently experiencing a variety of positive and negative emotions such as “excited” and “mad.” The PANAS was administered during each of the three visits to assess participant affect prior to taking the study drug as well as after taking the study drug over a period of 28 days.

[2] = system: Healthy subjects, ages 13-18; test: Exercise and Life Style Questionnaire; format: in vivo, human; design: scale not given here; details: for Alcohol Q10 V1 Mean / Alcohol Q11 V1 Mean / Alcohol Q12 V1 Mean / Alcohol Total V1 Mean / Appetite Q5 V1 Mean / Appetite Q6 V1 Mean / Appetite Total V1 Mean / Exercise Q1 V1 Mean / Exercise Q2 V1 Mean / Exercise Q3 V1 Mean / Exercise Q4 V1 Mean / Exercise Total V1 Mean / Smoke Q7 V1 Mean / Smoke Q8 V1 Mean / Smoke Q9 V1 Mean / Smoke Total V1 Mean: Visit 1; for Alcohol Q10 V3 Mean / Alcohol Q11 V3 Mean / Alcohol Q12 V3 Mean / Alcohol Total V3 Mean / Appetite Q5 V3 Mean / Appetite Q6 V3 Mean / Appetite Total V3 Mean / Exercise Q1 V3 Mean / Exercise Q2 V3 Mean / Exercise Q3 V3 Mean / Exercise Q4 V3 Mean / Exercise Total V3 Mean / Smoke Q7 V3 Mean / Smoke Q8 V3 Mean / Smoke Q9 V3 Mean / Smoke Total V3 Mean: Visit 3
Source text: Study participants were screened by telephone prior to study enrollment. Healthy subjects, ages 13-18, with no significant medical conditions and no history of co-morbid psychiatric disorder, current Axis I or II diagnosis, or previous participation in a pharmacotherapeutic trial, were selected. Use of any psychotropic medication or any previous head injury resulting in loss of consciousness for 5 or more minutes were used as exclusion criteria. While no participant met criteria for a neuropsychiatric disorder at enrollment, clinical assessments were still completed throughout the study to evaluate changes in mood state. In addition, self-reports of sleep habits, lifestyle, and exercise routines were also administered at baseline as well as at each study visit to assess changes in health habits during study participation. Following the completion of Visit 1 assessment, participants were given their 28-day supply of citicoline (250 mg or 500 mg) or placebo, which was randomly assigned. They were instructed to take one capsule a day every day for the next 28 days. Visit 2 occurred fourteen days after Visit 1. At Visit 2, the remaining study pills were counted and participant dosage calendars were checked to ensure compliance with the protocol. Additional neuropsychological measures and clinical assessments were administered during this visit. Participants returned for Visit 3 fourteen days later, on the 28th day of their study participation. The pill bottle and the dosage calendar were collected from each participant. Urine and blood were again obtained. Participants also participated in similar clinical and neuropsychological testing and clinical measures that were given during visit 1. The General Questionnaire and Exercise and Life Style Questionnaire are self-report questionnaires designed to assess a variety of symptoms, behaviors, and self-perceptions, including mood, complexion, exercise, food, and alcohol habits of each of the participants. The General Questionnaire was administered during each of the three study visits; the Exercise and Life Style Questionnaire was administered during each of the three study visits. The Exercise/Lifestyle Questionnaire included four summary categories (Exercise, Appetite, Smoke, and Alcohol), each of which consisted of multiple individual items. Within and between group analyses are reported below for each of the summary categories.

C[N+](C)(C)CCOP(=O)(O)OP(=O)([O-])OC[C@H]1O[C@@H](n2ccc(N)nc2=O)[C@H](O)[C@@H]1O [citicoline, Cytidine 5′-diphosphocholine]
PANAS-C Negative Score, Mean ([1]; 250 mg/day, V1 (baseline)): 23.15 | PANAS-C Positive Score, Mean ([1]; 250 mg/day, V1 (baseline)): 45.74 | PANAS-C Negative Score, Mean ([1]; 250 mg/day, V3 (day 28)): 19.81 | PANAS-C Positive Score, Mean ([1]; 250 mg/day, V3 (day 28)): 41.93 | PANAS-C Negative Score, Mean ([1]; 250 mg/day, V3-V1): -3.33 | PANAS-C Positive Score, Mean ([1]; 250 mg/day, V3-V1): -3.81 | PANAS-C Negative Score, Mean ([1]; 500 mg/day, V1 (baseline)): 21.55 | PANAS-C Positive Score, Mean ([1]; 500 mg/day, V1 (baseline)): 43.30 | PANAS-C Negative Score, Mean ([1]; 500 mg/day, V3 (day 28)): 18.00 | PANAS-C Positive Score, Mean ([1]; 500 mg/day, V3 (day 28)): 41.78 | PANAS-C Negative Score, Mean ([1]; 500 mg/day, V3-V1): -3.55 | PANAS-C Positive Score, Mean ([1]; 500 mg/day, V3-V1): -1.52 | PANAS-C positive emotional attributes, between groups ([1]; Placebo vs 500 mg/day, visit 3, p=0.39): No significant effect | Alcohol Total V3-V1 Mean ([2]; 250 mg/day): 0.00 | Appetite Total V3-V1 Mean ([2]; 250 mg/day): -0.59 | Exercise Total V3-V1 Mean ([2]; 250 mg/day): -0.78 | Smoke Total V3-V1 Mean ([2]; 250 mg/day): -0.07 | Alcohol Q10 V1 Mean ([2]; 250 mg/day): 0.07 | Alcohol Q11 V1 Mean ([2]; 250 mg/day): 1.00 | Alcohol Q12 V1 Mean ([2]; 250 mg/day): 1.00 | Alcohol Total V1 Mean ([2]; 250 mg/day): 2.07 | Appetite Q5 V1 Mean ([2]; 250 mg/day): 4.11 | Appetite Q6 V1 Mean ([2]; 250 mg/day): 4.44 | Appetite Total V1 Mean ([2]; 250 mg/day): 8.56 | Exercise Q1 V1 Mean ([2]; 250 mg/day): 1.15 | Exercise Q2 V1 Mean ([2]; 250 mg/day): 6.35 | Exercise Q3 V1 Mean ([2]; 250 mg/day): 3.56 | Exercise Q4 V1 Mean ([2]; 250 mg/day): 3.81 | Exercise Total V1 Mean ([2]; 250 mg/day): 14.87 | Smoke Q7 V1 Mean ([2]; 250 mg/day): 0.00 | Smoke Q8 V1 Mean ([2]; 250 mg/day): 1.00 | Smoke Q9 V1 Mean ([2]; 250 mg/day): 1.07 | Smoke Total V1 Mean ([2]; 250 mg/day): 2.08 | Alcohol Q10 V3 Mean ([2]; 250 mg/day): 0.07 | Alcohol Q11 V3 Mean ([2]; 250 mg/day): 1.00 | Alcohol Q12 V3 Mean ([2]; 250 mg/day): 1.00 | Alcohol Total V3 Mean ([2]; 250 mg/day): 2.07 | Appetite Q5 V3 Mean ([2]; 250 mg/day): 4.15 | Appetite Q6 V3 Mean ([2]; 250 mg/day): 3.81 | Appetite Total V3 Mean ([2]; 250 mg/day): 7.96 | Exercise Q1 V3 Mean ([2]; 250 mg/day): 1.07 | Exercise Q2 V3 Mean ([2]; 250 mg/day): 6.80 | Exercise Q3 V3 Mean ([2]; 250 mg/day): 3.11 | Exercise Q4 V3 Mean ([2]; 250 mg/day): 3.11 | Exercise Total V3 Mean ([2]; 250 mg/day): 14.09 | Smoke Q7 V3 Mean ([2]; 250 mg/day): 0.00 | Smoke Q8 V3 Mean ([2]; 250 mg/day): 1.00 | Smoke Q9 V3 Mean ([2]; 250 mg/day): 1.00 | Smoke Total V3 Mean ([2]; 250 mg/day): 2.00 | Alcohol Total V3-V1 Mean ([2]; 500 mg/day): 0.00 | Appetite Total V3-V1 Mean ([2]; 500 mg/day): -0.83 | Exercise Total V3-V1 Mean ([2]; 500 mg/day): -2.78 | Smoke Total V3-V1 Mean ([2]; 500 mg/day): 0.00 | Alcohol Q10 V1 Mean ([2]; 500 mg/day): 0.00 | Alcohol Q11 V1 Mean ([2]; 500 mg/day): 1.00 | Alcohol Q12 V1 Mean ([2]; 500 mg/day): 1.00 | Alcohol Total V1 Mean ([2]; 500 mg/day): 2.00 | Appetite Q5 V1 Mean ([2]; 500 mg/day): 3.96 | Appetite Q6 V1 Mean ([2]; 500 mg/day): 3.25 | Appetite Total V1 Mean ([2]; 500 mg/day): 7.21 | Exercise Q1 V1 Mean ([2]; 500 mg/day): 1.17 | Exercise Q2 V1 Mean ([2]; 500 mg/day): 8.50 | Exercise Q3 V1 Mean ([2]; 500 mg/day): 3.71 | Exercise Q4 V1 Mean ([2]; 500 mg/day): 3.75 | Exercise Total V1 Mean ([2]; 500 mg/day): 17.24 | Smoke Q7 V1 Mean ([2]; 500 mg/day): 0.00 | Smoke Q8 V1 Mean ([2]; 500 mg/day): 1.00 | Smoke Q9 V1 Mean ([2]; 500 mg/day): 1.00 | Smoke Total V1 Mean ([2]; 500 mg/day): 2.00 | Alcohol Q10 V3 Mean ([2]; 500 mg/day): 0.00 | Alcohol Q11 V3 Mean ([2]; 500 mg/day): 1.00 | Alcohol Q12 V3 Mean ([2]; 500 mg/day): 1.00 | Alcohol Total V3 Mean ([2]; 500 mg/day): 2.00 | Appetite Q5 V3 Mean ([2]; 500 mg/day): 3.50 | Appetite Q6 V3 Mean ([2]; 500 mg/day): 2.88 | Appetite Total V3 Mean ([2]; 500 mg/day): 6.38 | Exercise Q1 V3 Mean ([2]; 500 mg/day): 1.13 | Exercise Q2 V3 Mean ([2]; 500 mg/day): 7.54 | Exercise Q3 V3 Mean ([2]; 500 mg/day): 2.96 | Exercise Q4 V3 Mean ([2]; 500 mg/day): 2.75 | Exercise Total V3 Mean ([2]; 500 mg/day): 14.46 and 14.48 | Smoke Q7 V3 Mean ([2]; 500 mg/day): 0.00 | Smoke Q8 V3 Mean ([2]; 500 mg/day): 1.00 | Smoke Q9 V3 Mean ([2]; 500 mg/day): 1.00 | Smoke Total V3 Mean ([2]; 500 mg/day): 2.00
